In paper PMC10641814 (Journal of Medicinal Chemistry, 2023):

Key:
[1] = biological target: T1, h5-HT3R (Homo sapiens, UniProt P46098); experiment: 5-HT3R radioligand binding ([3H]-BRL 43694) in CHO cells
T1 construct: expressed in transfected cells; host or cells: CHO
T1 sequence (P46098 24-478): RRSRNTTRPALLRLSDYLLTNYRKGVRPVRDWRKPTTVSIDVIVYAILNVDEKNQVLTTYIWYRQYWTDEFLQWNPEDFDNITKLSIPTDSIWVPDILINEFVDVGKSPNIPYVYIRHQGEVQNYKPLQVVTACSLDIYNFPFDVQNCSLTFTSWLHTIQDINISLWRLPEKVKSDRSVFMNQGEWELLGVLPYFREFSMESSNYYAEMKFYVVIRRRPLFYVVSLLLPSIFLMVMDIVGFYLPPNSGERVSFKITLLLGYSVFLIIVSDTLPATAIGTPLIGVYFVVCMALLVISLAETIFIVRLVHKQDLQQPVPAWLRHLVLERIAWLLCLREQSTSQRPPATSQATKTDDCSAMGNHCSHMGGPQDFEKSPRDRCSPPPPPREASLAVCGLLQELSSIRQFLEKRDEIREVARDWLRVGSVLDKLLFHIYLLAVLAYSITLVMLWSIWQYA

[2] = biological target: T2, 5-HT3R (Cavia porcellus, UniProt O70212); experiment: Ex vivo guinea pig ileum contractility, serotonin-induced; conditions: 15 min incubation
T2 construct: from tissue; host or cells: guinea pig ileum
T2 sequence (O70212 20-490): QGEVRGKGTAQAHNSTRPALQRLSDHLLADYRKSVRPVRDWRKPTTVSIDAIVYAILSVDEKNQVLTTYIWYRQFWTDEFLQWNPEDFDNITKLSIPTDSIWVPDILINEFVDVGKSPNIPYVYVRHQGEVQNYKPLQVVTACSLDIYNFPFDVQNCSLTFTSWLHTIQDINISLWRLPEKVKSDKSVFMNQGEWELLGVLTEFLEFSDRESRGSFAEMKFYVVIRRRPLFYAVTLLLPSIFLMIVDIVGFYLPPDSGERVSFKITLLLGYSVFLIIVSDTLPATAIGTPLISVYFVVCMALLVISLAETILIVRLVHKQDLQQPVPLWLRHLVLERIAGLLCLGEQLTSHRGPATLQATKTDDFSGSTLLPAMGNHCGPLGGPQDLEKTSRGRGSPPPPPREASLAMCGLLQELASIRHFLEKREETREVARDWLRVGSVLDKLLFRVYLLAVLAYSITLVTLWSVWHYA

[3] = biological target: T3, human 5-HT1A (Homo sapiens, UniProt P08908); experiment: 5-HT1AR binding ([3H]-8-OH-DPAT), HEK293; conditions: read-out: serotonin 5-HT1A % inhibition at 1 microM
T3 construct: expressed in transfected cells
T3 sequence (P08908 1-422): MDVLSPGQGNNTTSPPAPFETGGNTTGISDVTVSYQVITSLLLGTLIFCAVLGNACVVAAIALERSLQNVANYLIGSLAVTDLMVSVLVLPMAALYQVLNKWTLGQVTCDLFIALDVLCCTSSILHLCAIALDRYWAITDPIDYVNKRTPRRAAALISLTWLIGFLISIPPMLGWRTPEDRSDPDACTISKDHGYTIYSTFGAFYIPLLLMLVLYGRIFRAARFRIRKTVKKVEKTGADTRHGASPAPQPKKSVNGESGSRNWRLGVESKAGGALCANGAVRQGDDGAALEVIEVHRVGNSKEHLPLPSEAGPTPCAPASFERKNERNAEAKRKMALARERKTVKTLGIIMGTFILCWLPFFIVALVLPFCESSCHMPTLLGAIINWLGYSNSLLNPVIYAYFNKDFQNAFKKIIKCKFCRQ
Experimental: 3. Selectivity screen of PZ-1922
For membrane preparation,
EDTA and 1 mM dithiothreitol.
The composition of the assay buffers was
reader (PerkinElmer, USA).
(§1) The results were expressed as the %
(§2) www.eurofinsdiscovery.com.

[4] = biological target: 5-HT2BR (Homo sapiens, UniProt P41595); experiment: 5-HT2BR binding ([3H]-mesulergine), Eurofins
5-HT2BR, sequence (P41595 whole entry): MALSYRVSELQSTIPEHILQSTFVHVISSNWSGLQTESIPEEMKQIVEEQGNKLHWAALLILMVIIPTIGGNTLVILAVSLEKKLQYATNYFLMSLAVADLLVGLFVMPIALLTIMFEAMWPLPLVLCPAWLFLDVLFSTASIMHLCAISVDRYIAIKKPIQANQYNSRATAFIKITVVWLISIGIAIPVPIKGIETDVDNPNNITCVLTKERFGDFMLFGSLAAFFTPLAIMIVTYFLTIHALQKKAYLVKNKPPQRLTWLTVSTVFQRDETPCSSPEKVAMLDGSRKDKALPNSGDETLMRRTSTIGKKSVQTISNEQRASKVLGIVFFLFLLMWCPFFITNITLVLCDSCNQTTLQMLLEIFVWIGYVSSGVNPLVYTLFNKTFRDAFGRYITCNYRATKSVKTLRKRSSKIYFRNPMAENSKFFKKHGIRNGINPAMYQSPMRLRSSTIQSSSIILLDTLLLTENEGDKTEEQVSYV
Text: as §1, §2

[5] = biological target: T4, α2AR (Homo sapiens, UniProt P08913); experiment: Adrenergic α2AR binding ([3H]-RX821002), Eurofins; conditions: read-out: adrenergic alfa2A % inhibition at 1 microM
T4 sequence (P08913 1-465): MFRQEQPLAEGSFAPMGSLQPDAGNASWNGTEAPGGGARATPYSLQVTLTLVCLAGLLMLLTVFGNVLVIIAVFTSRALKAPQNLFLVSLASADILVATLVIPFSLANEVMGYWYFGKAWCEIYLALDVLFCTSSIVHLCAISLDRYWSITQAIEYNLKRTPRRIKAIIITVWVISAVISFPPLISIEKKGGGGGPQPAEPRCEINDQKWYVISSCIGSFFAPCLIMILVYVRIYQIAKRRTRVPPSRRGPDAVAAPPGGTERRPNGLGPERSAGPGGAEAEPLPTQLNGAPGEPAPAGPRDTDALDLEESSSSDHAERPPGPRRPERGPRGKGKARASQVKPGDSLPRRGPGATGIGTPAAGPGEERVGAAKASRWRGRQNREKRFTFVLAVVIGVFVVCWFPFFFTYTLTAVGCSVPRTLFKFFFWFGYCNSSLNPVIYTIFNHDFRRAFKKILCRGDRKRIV
Text: as §1, §2

[6] = biological target: serotonin transporter SERT (Homo sapiens, UniProt P31645); experiment: SERT binding ([3H]-imipramine), Eurofins
serotonin transporter SERT, sequence (P31645 whole entry): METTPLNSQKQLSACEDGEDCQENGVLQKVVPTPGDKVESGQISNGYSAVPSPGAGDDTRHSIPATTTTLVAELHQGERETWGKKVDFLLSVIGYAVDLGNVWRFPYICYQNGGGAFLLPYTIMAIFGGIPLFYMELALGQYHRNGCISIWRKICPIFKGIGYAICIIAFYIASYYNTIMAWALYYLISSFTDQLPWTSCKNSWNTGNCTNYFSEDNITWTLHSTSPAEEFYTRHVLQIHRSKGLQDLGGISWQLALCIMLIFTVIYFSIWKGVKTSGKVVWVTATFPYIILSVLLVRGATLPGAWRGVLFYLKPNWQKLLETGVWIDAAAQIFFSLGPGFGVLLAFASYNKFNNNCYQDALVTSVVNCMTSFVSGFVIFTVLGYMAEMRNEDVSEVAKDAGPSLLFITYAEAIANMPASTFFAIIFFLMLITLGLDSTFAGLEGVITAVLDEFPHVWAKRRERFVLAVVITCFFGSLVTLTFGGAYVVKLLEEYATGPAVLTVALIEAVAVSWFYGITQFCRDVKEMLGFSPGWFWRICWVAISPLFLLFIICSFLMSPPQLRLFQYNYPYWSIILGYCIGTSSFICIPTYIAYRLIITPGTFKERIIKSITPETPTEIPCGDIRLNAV
Text: as §1, §2

[7] = Solubility in water

## Cl.Clc1cccc(Cn2ccc3c(N4CCNCC4)nc4ccccc4c32)c1 [PZ-1922, 1-(3-Chlorobenzyl)-4-(piperazin-1-yl)-1H-pyrrolo[3,2-c]quinoline Hydrochloride]
[1]; 0.5 nM [3H]-BRL 43694, CHO cells expressing h5-HT3R, two independent experiments
  Ki: 0.45 nM
[1]; read-out: inhibition of 5-HT3R binding in selectivity screen
  inhibition at 1 µM: > 50%
[2]
  pD2' antagonism at 5-HT3R: 7.32
[2]; listed as 16 (PZ1922), 15 min
  pD2' antagonism at 5-HT3R: 7,32
[3]
  inhibition at 1 µM: 3%
[4]; binding, 1 μM
  effect on 5-HT2BR (cardiac safety, valvulopathy): lack of effect
[4]; read-out: serotonin 5-HT2B % inhibition at 1 microM
  inhibition at 1 µM: 17%
[5]
  inhibition at 1 µM: 22%
[6]
  inhibition at 1 µM: 1.8%
[7]
  solubility: 325 mg/mL
